US8435980B2 (AbbVie Inc., priority 2009, dated 2013)
pKi: −log10 of the molar value.

Molecular target: T1, Cdc7 (BEV coexpressed huCDC7/DBF4) (Homo sapiens, UniProt O00311)
T1 construct: made in house; host or cells: BEV (baculovirus expression vector) co-expression; insect cells are implied but no cell line is named
Assay: Cdc7 enzyme inhibition assay ([33P]ATP, biotinylated peptide substrate, FlashPlate)
Type: biochemical
Conditions: not given
Procedure: Cdc7 (BEV coexpressed huCDC7/DBF4) is prepared internally. Cdc7 assays are conducted as follows with final concentrations as listed. […] Reactions are quenched after 1 hr by the addition of 90 μL stop buffer (50 mM EDTA, 2M NaCl). […] (Ki) for exemplary compounds.

T1 sequence (O00311 whole entry): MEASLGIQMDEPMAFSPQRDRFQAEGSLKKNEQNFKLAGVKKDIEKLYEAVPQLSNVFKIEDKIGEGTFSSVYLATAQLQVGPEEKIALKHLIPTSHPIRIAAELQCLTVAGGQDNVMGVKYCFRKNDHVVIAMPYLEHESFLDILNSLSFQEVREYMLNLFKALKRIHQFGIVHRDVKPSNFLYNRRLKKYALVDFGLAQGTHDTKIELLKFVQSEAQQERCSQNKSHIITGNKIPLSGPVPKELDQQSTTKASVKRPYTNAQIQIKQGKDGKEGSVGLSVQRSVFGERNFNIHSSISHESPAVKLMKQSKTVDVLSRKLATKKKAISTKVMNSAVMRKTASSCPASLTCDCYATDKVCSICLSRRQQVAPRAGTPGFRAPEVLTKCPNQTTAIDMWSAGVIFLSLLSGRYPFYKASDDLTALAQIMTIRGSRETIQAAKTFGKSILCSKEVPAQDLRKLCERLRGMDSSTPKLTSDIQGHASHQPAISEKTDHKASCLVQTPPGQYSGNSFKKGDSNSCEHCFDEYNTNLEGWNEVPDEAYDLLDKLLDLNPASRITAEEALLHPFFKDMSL
T1 sequence (Q9UBU7 whole entry partner): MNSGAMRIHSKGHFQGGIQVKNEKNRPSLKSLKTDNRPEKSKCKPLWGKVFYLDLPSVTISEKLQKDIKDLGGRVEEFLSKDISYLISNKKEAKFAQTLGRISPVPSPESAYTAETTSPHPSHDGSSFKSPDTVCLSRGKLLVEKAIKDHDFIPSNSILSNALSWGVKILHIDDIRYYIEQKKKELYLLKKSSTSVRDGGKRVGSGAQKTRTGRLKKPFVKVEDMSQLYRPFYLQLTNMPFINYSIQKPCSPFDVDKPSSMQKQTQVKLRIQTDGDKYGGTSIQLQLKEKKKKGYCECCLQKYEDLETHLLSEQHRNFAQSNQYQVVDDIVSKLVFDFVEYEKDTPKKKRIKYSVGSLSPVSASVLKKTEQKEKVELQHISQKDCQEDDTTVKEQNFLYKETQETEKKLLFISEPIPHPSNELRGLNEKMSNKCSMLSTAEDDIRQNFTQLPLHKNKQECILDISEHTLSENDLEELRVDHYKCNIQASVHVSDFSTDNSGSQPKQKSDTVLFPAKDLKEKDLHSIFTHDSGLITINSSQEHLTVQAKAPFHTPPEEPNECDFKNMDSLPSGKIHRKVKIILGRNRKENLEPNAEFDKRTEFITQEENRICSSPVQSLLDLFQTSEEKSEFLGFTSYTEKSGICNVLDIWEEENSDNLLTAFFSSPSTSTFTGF

SMILES | pKi
CS(=O)(=O)NC1CCCC(Nc2cc(-c3c[nH]c4ncccc34)cc(Cl)n2)C1 (stereo not drawn) [Example 24, N-(3-{[6-chloro-4-(1H-pyrrolo[2,3-b]pyridin-3-yl)pyridin-2-yl]-amino}cyclohexyl)methanesulfonamide] | > 8.00
NC1CCCC(Nc2cc(-c3c[nH]c4ncccc34)cc(Cl)n2)C1 (stereo not drawn) [Example 23, N-[6-chloro-4-(1H-pyrrolo[2,3-b]pyridin-3-yl)pyridin-2-yl]cyclohexane-1,3-diamine] | > 8.00

Same assay, conditions: Table 2; Comparative Example lacking the chloro substituent versus the chloro Example

SMILES | Ki ratio comparisons (Ki Comparative Example/Ki Example)
N#Cc1cc(-c2c[nH]c3ncccc23)cc(NCc2ccccc2)n1 [Comparative Example 6, 6-(benzylamino)-4-(1H-pyrrolo[2,3-b]pyridin-3-yl)pyridine-2-carbonitrile, reference compound] | 5

Same assay, conditions: Table 3; enzyme inhibition data (Ki)

SMILES | pKi
C=CCNC(=O)NCCS(=O)(=O)N[C@H]1CC[C@H](Nc2cc(-c3c[nH]c4ncccc34)cc(Cl)n2)CC1 [Example 208, N-(trans-4-{[6-chloro-4-(1H-pyrrolo[2,3-b]pyridin-3-yl)pyridin-2-yl]amino}cyclohexyl)-2-[(prop-2-en-1-ylcarbamoyl)amino}ethanesulfonamide] | > 8.00
COc1cnc2[nH]cc(-c3cc(Cl)nc(N[C@H]4CC[C@H](NC(=O)CNCC(C)(C)C)CC4)c3)c2c1 [Example 258, N-(trans-4-{[6-chloro-4-(5-methoxy-1H-pyrrolo[2,3-b]pyridin-3-yl)pyridin-2-yl]amino}cyclohexyl)-N^2-(2,2-dimethylpropyl)glycinamide] | > 8.00
O=S(=O)(N[C@H]1CC[C@H](Nc2nc(Cl)cc(-c3c[nH]c4ncccc34)n2)CC1)C1CC1 [Example 282, N-(trans-4-{[4-chloro-6-(1H-pyrrolo[2,3-b]pyridin-3-yl)pyrimidin-2-yl]amino}cyclohexyl)cyclopropanesulfonamide] | > 8.00
CS(=O)(=O)N1CCC(Nc2cc(-c3c[nH]c4ncccc34)cc(Cl)n2)CC1 [Example 51, 6-chloro-N-[1-(methylsulfonyl)piperidin-4-yl]-4-(1H-pyrrolo[2,3-b]pyridin 3-yl)pyridin-2-amine] | > 8.00
CS(=O)(=O)N1CCC(C2CCC(N(c3cc(-c4c[nH]c5ncccc45)cc(Cl)n3)S(C)(=O)=O)CC2)CC1 (stereo not drawn) [Example 370, N-[6-chloro-4-(1H-pyrrolo[2,3-b]pyridin-3-yl)pyridin-2-yl]-N-{4-[1-(methylsulfonyl)piperidin-4-yl]cyclohexyl}methanesulfonamide] | 7.00 to 8.00
CC(C)(CNc1cc(-c2c[nH]c3ncccc23)cc(Cl)n1)CNS(=O)(=O)c1cccnc1 [Example 81, N-(3-{[6-chloro-4-(1H-pyrrolo[2,3-b]pyridin-3-yl)pyridin-2-yl]amino}-2,2-dimethylpropyl)pyridine-3-sulfonamide] | 7.00 to 8.00
CCOC(=O)CNC(=O)NC1CCC(Nc2cc(-c3c[nH]c4ncccc34)cc(Cl)n2)CC1 (stereo not drawn) [Example 286, ethyl N-[(4-{[6-chloro-4-(1H-pyrrolo[2,3-b]pyridin-3-yl)pyridin-2-yl]amino}cyclohexyl)carbamoyl]glycinate] | > 8.00
CCN1CCC1C(=O)N[C@H]1CC[C@H](Nc2cc(-c3c[nH]c4ncccc34)cc(Cl)n2)CC1 (relative stereo) [Example 134, N-(trans-4-{[6-chloro-4-(1H-pyrrolo[2,3-b]pyridin-3-yl)pyridin-2-yl]amino}cyclohexyl)-1-ethylazetidine-2-carboxamide] | > 8.00
CN1CCCCC1C(=O)NC1CCCC(Nc2cc(-c3c[nH]c4ncccc34)cc(Cl)n2)C1 (stereo not drawn) [Example 339, N-(3-{[6-chloro-4-(1H-pyrrolo[2,3-b]pyridin-3-yl)pyridin-2-yl]amino}cyclohexyl)-1-methylpiperidine-2-carboxamide] | > 8.00
Clc1cc(-c2c[nH]c3ncccc23)cc(NCCc2cccnc2)n1 [Example 378, 6-chloro-N-[2-(pyridin-3-yl)ethyl]-4-(1H-pyrrolo[2,3-b]pyridin-3-yl)pyridin-2-amine] | > 8.00
Clc1cc(-c2c[nH]c3ncccc23)cc(Nc2cccc3c2CCC3)n1 [Example 441, 6-chloro-N-(2,3-dihydro-1H-inden-4-yl)-4-(1H-pyrrolo[2,3-b]pyridin-3-yl)pyridin-2-amine] | > 8.00
O=C(NC1CCCC(Nc2cc(-c3c[nH]c4ncccc34)cc(Cl)n2)C1)C1CCN1 (stereo not drawn) [Example 295, N-(3-{[6-chloro-4-(1H-pyrrolo[2,3-b]pyridin-3-yl)pyridin-2-yl]amino}cyclohexyl)azetidine-2-carboxamide] | > 8.00
CC(C)(CNc1cc(-c2c[nH]c3ncccc23)cc(Cl)n1)CNS(=O)(=O)C1CC1 [Example 82, N-(3-{[6-chloro-4-(1H-pyrrolo[2,3-b]pyridin-3-yl)pyridin-2-yl]amino}-2,2-dimethylpropyl)cyclopropanesulfonamide] | > 8.00
O=S(=O)(Nc1cc(-c2c[nH]c3ncccc23)cc(Cl)n1)C1CC1 [Example 332, N-[6-chloro-4-(1H-pyrrolo[2,3-b]pyridin-3-yl)pyridin-2-yl]cyclopropanesulfonamide] | > 8.00
O=S(=O)(N[C@H]1CC[C@H](Nc2cc(-c3c[nH]c4ncc(-c5cncnc5)cc34)cc(Cl)n2)CC1)C1CC1 [Example 455, N-[trans-4-({6-chloro-4-[5-(pyrimidin-5-yl)-1H-pyrrolo[2,3-b]pyridin-3-yl]pyridin-2-yl}amino)cyclohexyl] cyclopropanesulfonamide] | > 8.00
O=C(N[C@H]1CC[C@H](Nc2cc(-c3c[nH]c4ncccc34)cc(Cl)n2)CC1)C1CN(Cc2cccc(C(F)(F)F)c2)C1 [Example 394, N-(trans-4-{[6-chloro-4-(1H-pyrrolo[2,3-b]pyridin-3-yl)pyridin-2-yl]amino}cyclohexyl)-1-[3-(trifluoromethyl)benzyl]azetidine-3-carboxamide] | > 8.00
O=C(CNCCO)N[C@H]1CC[C@H](Nc2cc(-c3c[nH]c4ncccc34)cc(Cl)n2)CC1 [Example 352, N-(trans-4-{[6-chloro-4-(1H-pyrrolo[2,3-b]pyridin-3-yl)pyridin-2-yl]amino}cyclohexyl)-N~2~-(2-hydroxyethyl)glycinamide] | > 8.00
Clc1cc(-c2c[nH]c3ncc(-c4cccnc4)cc23)cc(NC2CCCCC2)n1 [Example 214, 6-chloro-N-cyclohexyl-4-[5-(pyridin-3-yl)-1H-pyrrolo[2,3-b]pyridin-3-yl]pyridin-2-amine] | > 8.00
CC(=O)NC1CCC(N[C@H]2CC[C@H](Nc3cc(-c4c[nH]c5ncccc45)cc(Cl)n3)CC2)CC1 (stereo partly drawn) [Example 161, N-{4-[(trans-4-{[6-chloro-4-(1H-pyrrolo[2,3-b]pyridin-3-yl)pyridin-2-yl]amino}cyclohexyl)amino]cyclohexyl}acetamide] | > 8.00
O=S(=O)(N[C@H]1CC[C@H](Nc2cc(-c3c[nH]c4ncccc34)cc(Cl)n2)CC1)C1CCNC1 (relative stereo) [Example 151, N-(trans-4-{[6-chloro-4-(1H-pyrrolo[2,3-b]pyridin-3-yl)pyridin-2-yl]amino}cyclohexyl)pyrrolidine-3-sulfonamide] | > 8.00
O=C(CNCCN1CCOCC1)N[C@H]1CC[C@H](Nc2cc(-c3c[nH]c4ncccc34)cc(Cl)n2)CC1 [Example 153, N-(trans-4-{[6-chloro-4-(1H-pyrrolo[2,3-b]pyridin-3-yl)pyridin-2-yl]amino}cyclohexyl)-N^2-[2-(morpholin-4-yl)ethyl]glycinamide] | > 8.00
